Assays:
Hep-2 cells = experiment: Toxicity studies (XTT), Hep-2 cells; format: cell-based; design: TC50 (6d): unit not given beside the values; settings: for TC50 (6d): Table 2, Examples 75 to 82 and 125 to 184, 6d, in µM
Description: (§1) The inner 60 wells of 96 well tissue culture plates were seeded with Hep-2 cells at 4×10^4 cells/well for compound activity and toxicity studies in 100 μl of medium and incubated at 37° C. overnight or until nearing confluency.
Cells were infected with 25 μl RSV previously titrated to give 80% cell kill. To each well 25 μM of test compound were added. The final DMSO concentration was 0.5%. […] Some 0.25 μl/ml PMS were added to stock […] solution, final conc. 25 μM PMS. Then 25 μl warmed XTT/PMS solution were added to each well and incubated for 1 hour at 37° C.

RSV [1] = experiment: XTT assay, RSV-infected Hep-2 cells; format: cell-based, Respiratory Syncytial Virus (RSV); settings: Table 2, Examples 75 to 82 and 125 to 184, Hep-2 cells infected with RSV, 6 days at 37° C.
Description: Examples 75 to 82 and 125 to 184 were tested according to the protocol described below.
as §1
Cells were infected with 25 μl RSV previously titrated to give 80% cell kill. To each well 25 μM of test compound were added. The final DMSO concentration was 0.5%. Some 200 μl of sterile distilled water were added to the outer wells of the plate and incubated at 37° C. for 6 days. Some 0.25 μl/ml PMS were added to stock […] solution, final conc. 25 μM PMS. Then 25 μl warmed XTT/PMS solution were added to each well and incubated for 1 hour at 37° C.
Maximum OD450nm reading (uninfected, untreated control cells) corresponded to 100% inhibition. Minimum OD450nm readings (infected control cells) corresponded to 0% inhibition. Log 10 concentration was plotted against OD450nm and IC50 values were calculated from either reading 50% value from graph or using regression analysis.

RSV [2] = experiment: XTT assay, RSV-infected Vero cells; format: cell-based, Respiratory Syncytial Virus (RSV); settings: Vero cells infected with RSV, m.o.i.≈0.2, 6 days at 33° C.
In short: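 Vero cells infected with RSV at m.o.i.≈0.2 in presence of serially ½-log diluted compound, incubated 6 days at 33 °C. Viability read by XTT/PMS (5 h, 37 °C) at OD450; uninfected untreated cells = 100%, infected controls = 0% inhibition. IC50 from graph or regression; parallel uninfected plates for toxicity.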

Vero cells = experiment: Simultaneous toxicity investigation (XTT), Vero cells; format: cell-based; design: unit not given here; settings: for TC50 (2d): Table 2, Examples 83 to 124, 2d; for TC50 (6d): Table 2, Examples 83 to 124, 6d
Description: The inner 60 wells of 96 well tissue culture plates were seeded with Vero cells at 3×10^4 cells/well (1×10^4 cells/well for toxicity studies) in 100 or 150 μl of medium and incubated at 37° C. overnight or until nearing confluency. For primary screen, 25 μl compounds were added directly to 100 μl medium in single wells to duplicate plates. A third plate was prepared for simultaneous toxicity investigation.
For follow-up investigation, 70 μl of compound in duplicate wells were added directly to culture medium at 3.2× final concentration and ½ log serially diluted down columns of plate. A duplicate plate was prepared for simultaneous toxicity investigation.
Cells were infected with 25 μl RSV to give m.o.i.≈0.2. […] Some 0.25 μl/ml PMS were added to stock XTT solution, final conc. […]. Then 25 μl warmed XTT/PMS solution were added to each well and incubated for 5 hours at 37° C. Plates were shaken (DynaTech Vari-Shaker) vigorously for 10 mins and allowed to cool for 15 mins before sealing. Absorbance at 450 nm was measured and data analysed using Microsoft Excel software.

[3] = human respiratory syncytial virus, 144 h
[4] = human respiratory syncytial virus, Vero, 144 h, read-out: XTT IC50 (uM), Table 2, Examples 83 to 124
[5] = Table 2, Examples 83 to 124, read-out: XTT IC50

Compound	TC50 (6d) (Hep-2 cells)	IC50 (RSV [2]; [4]) [µM]	TC50 (2d) (Vero cells)	TC50 (6d) (Vero cells)	other results
1-(2-Oxo-5-phenyl-2,3-dihydro-1H-benzo[e][1,4]diazepin-3-yl)-3-m-tolyl-urea [Example 141]	>50				IC50 (RSV [1]): 4.3 µM
5-Acetyl-2-ethoxy-N-(2-oxo-5-phenyl-2,3-dihydro-1H-benzo[e][1,4]diazepin-3-yl)-benzamide [Example 76a]	64				IC50 (RSV [1]): 3.5 µM
5-Methyl-furan-2-carboxylic acid (2-oxo-5-phenyl-2,3-dihydro-1H-benzo[e][1,4]diazepin-3-yl)-amide [Example 161]	60				TC50 (2d) (Hep-2 cells; Table 2, Examples 75 to 82 and 125 to 184, 2d): 100 µM; IC50 (RSV [1]): 2 µM
COc1cc(S(C)(=O)=O)ccc1C(=O)NC1N=C(c2ccccc2)c2ccccc2NC1=O (stereo not shown) [Example 75a, 4-Methanesulfonyl-2-methoxy-N-(2-oxo-5-phenyl-2,3-dihydro-1H-benzo[e][1,4]diazepin-3-yl)-benzamide]					IC50 (RSV [1]; [3]): 2.4 µM
COc1cc(S(C)(=O)=O)ccc1C(=O)N[C@H]1N=C(c2ccccc2)c2ccccc2NC1=O [Example 75b, (S)-4-Methanesulfonyl-2-methoxy-N-(2-oxo-5-phenyl-2,3-dihydro-1H-benzo[e][1,4]diazepin-3-yl)-benzamide]	>50				IC50 (RSV [1]; [3]): 0.6 µM
CCOc1ccc(C(C)=O)cc1C(=O)N[C@H]1N=C(c2ccccc2)c2ccccc2NC1=O [Example 76b, (S)-5-Acetyl-2-ethoxy-N-(2-oxo-5-phenyl-2,3-dihydro-1H-benzo[e][1,4]diazepin-3-yl)-benzamide]	>50				IC50 (RSV [1]; [3]): 1.2 µM
O=C(NC1N=C(c2ccccc2)c2ccccc2NC1=O)c1cc(F)cc2c1OCOC2 (stereo not shown) [Example 77a, 6-Fluoro-4H-benzo[1,3]dioxine-8-carboxylic acid (2-oxo-5-phenyl-2,3-dihydro-1H-benzo[e][1,4]diazepin-3-yl)-benzamide]	>50				IC50 (RSV [1]): 4.6 µM
O=C(N[C@H]1N=C(c2ccccc2)c2ccccc2NC1=O)c1cc(F)cc2c1OCOC2 [Example 77b, (S)-6-Fluoro-4H-benzo[1,3]dioxine-8-carboxylic acid (2-oxo-5-phenyl-2,3-dihydro-1H-benzo[e][1,4]diazepin-3-yl)-amide]	33.2				IC50 (RSV [1]; [3]): 0.5 µM
COc1cc(C(F)(F)F)ccc1C(=O)N[C@H]1N=C(c2ccccc2)c2ccccc2NC1=O [Example 78, (S)-2-Methoxy-N-(2-oxo-5-phenyl-2,3-dihydro-1H-benzo[e][1,4]diazepin-3-yl)-4-trifluoromethyl-benzamide]	32.5				IC50 (RSV [1]; [3]): 2.7 µM
O=C(NC1N=C(c2ccccc2)c2ccccc2NC1=O)c1cc(F)c(F)cc1F (stereo not shown) [Example 79a, 2,4,5-Trifluoro-N-(2-oxo-5-phenyl-2,3-dihydro-1H-benzo[e][1,4]diazopin-3-yl)-benzamide]	65				IC50 (RSV [1]): 8 µM
O=C(N[C@H]1N=C(c2ccccc2)c2ccccc2NC1=O)c1cc(F)c(F)cc1F [Example 79b, (S)-2,4,5-Trifluoro-N-(2-oxo-5-phenyl-2,3-dihydro-1H-benzo[e][1,4]diazepin-3-yl)-benzamide]	>50				IC50 (RSV [1]; [3]): 5.8 µM
O=C(NC1N=C(c2ccccc2)c2ccccc2NC1=O)OCc1ccccc1 (stereo not shown) [Example 114, (2-Oxo-5-phenyl-2,3-dihydro-1H-benzo[e][1,4]diazepin-3-yl)-carbamic acid benzyl ester]		5	>100	60	
Cc1cc(C)cc(NC(=O)NC2N=C(c3ccccc3)c3ccccc3NC2=O)c1 (stereo not shown) [Example 115, 1-(3,5-Dimethyl-phenyl)-3-(2-oxo-5-phenyl-2,3-dihydro-1H-benzo[e][1,4]diazepin-3-yl)-urea]		1.5	>100	60	
O=C(Nc1ccc(OC(F)(F)F)cc1)NC1N=C(c2ccccc2)c2ccccc2NC1=O (stereo not shown) [Example 116, 1-(2-Oxo-5-phenyl-2,3-dihydro-1H-benzo[e][1,4]diazepin-3-yl)-3-(4-trifluoromethoxy-phenyl)-urea]		2	20	20	
O=C(Nc1ccc(Br)cc1C(F)(F)F)NC1N=C(c2ccccc2)c2ccccc2NC1=O (stereo not shown) [Example 117, 1-(4-Bromo-2-trifluoromethyl-phenyl)-3-(2-oxo-5-phenyl-2,3-dihydro-1H-benzo[e][1,4]diazepin-3-yl)-urea]		6	60	100	
O=C(NCc1ccc(Br)cc1)NC1N=C(c2ccccc2)c2ccccc2NC1=O (stereo not shown) [Example 118, 1-(4-Bromo-benzyl)-3-(2-oxo-5-phenyl-2,3-dihydro-1H-benzo[e][1,4]diazepin-3-yl)-urea]		2	>100	100	
O=C(Nc1cccc(Cl)c1Cl)NC1N=C(c2ccccc2)c2ccccc2NC1=O (stereo not shown) [Example 119, 1-(2,3-Dichloro-phenyl)-3-(2-oxo-5-phenyl-2,3-dihydro-1H-benzo[e][1,4]diazepin-3-yl)-urea]		2	>100	30	
Cc1cccc(C)c1NC(=O)NC1N=C(c2ccccc2)c2ccccc2NC1=O (stereo not shown) [Example 120, 1-(2,6-Dimethyl-phenyl)-3-(2-oxo-5-phenyl-2,3-dihydro-1H-benzo[e][1,4]diazepin-3-yl)-urea]		6	>100	60	
O=C(Nc1ccc([N+](=O)[O-])cc1)NC1N=C(c2ccccc2)c2ccccc2NC1=O (stereo not shown) [Example 122, 1-(4-Nitro-phenyl)-3-(2-oxo-5-phenyl-2,3-dihydro-1H-benzo[e][1,4]diazepin-3-yl)-urea]		0.4	60	20	
CSc1ccccc1NC(=O)NC1N=C(c2ccccc2)c2ccccc2NC1=O (stereo not shown) [Example 123, 1-(2-Methylsulfanyl-phenyl)-3-(2-oxo-5-phenyl-2,3-dihydro-1H-benzo[e][1,4]diazepin-3-yl)-urea]		2	>100	100	
O=C(Nc1c(Cl)cccc1Cl)NC1N=C(c2ccccc2)c2ccccc2NC1=O (stereo not shown) [Example 124, 1-(2,6-Dichloro-phenyl)-3-(2-oxo-5-phenyl-2,3-dihydro-1H-benzo[e][1,4]diazepin-3-yl)-urea]		5	70	60	
N-[5-(3-Chloro-phenyl)-2-oxo-5-phenyl-2,3-dihydro-1H-benzo[e][1,4]diazepin-3-yl]-2-nitro-benzamide [Example 101]			100	100	IC50 (RSV [2]; [5]): 2.5 µM
N-[5-(3-Chloro-phenyl)-2-oxo-5-phenyl-2,3-dihydro-1H-benzo[e][1,4]diazepin-3-yl]-4-methoxy-benzamide [Example 100]			>100	100	IC50 (RSV [2]; [5]): 4 µM
N-[5-(3-Chloro-phenyl)-2-oxo-5-phenyl-2,3-dihydro-1H-benzo[e][1,4]diazepin-3-yl]-4-nitro-benzamide [Example 102]			>100	>100	IC50 (RSV [2]; [5]): 7 µM
N-[5-(3-Methoxy-phenyl)-2-oxo-5-phenyl-2,3-dihydro-1H-benzo[e][1,4]diazepin-3-yl]nitro-benzamide [Example 110]			>100	>100	IC50 (RSV [2]; [5]): 5 µM
